Experimental data as given in US20240034999A1, “IMPROVED REPROGRAMMING, MAINTENANCE AND PRESERVATION FOR INDUCED PLURIPOTENT STEM CELLS” (Fate Therapeutics, Inc., priority 2020, published 2024).

Tested on: Human T cells transfected with reprogramming plasmids
Assay: T cell reprogramming efficiency, flow cytometry of iPSC surface markers
Type: cell-based
Details: VPA from around day 2-3 post transfection; three T cell donors; versus no VPA
Description: Flow Cytometry Analysis and Sorting Single cell dissociated reprogramming pools were resuspended in chilled staining buffer. Conjugated primary antibodies, including SSEA4-FITC, TRA181-Alexa Fluor-647 and CD30-PE (BD Biosciences), were added to the cell solution and incubated on ice for 15 min. All antibodies were used at 7-10 μL in 100 μL staining buffer per million cells. The resuspended dissociated single cells in staining buffer were spun down and resuspended in staining buffer now containing a ROCK inhibitor and maintained on ice for flow cytometry sorting. Flow cytometry sorting was performed on FACS Aria II (BD Biosciences). The sorted cells were directly ejected into 96-well plates at concentrations of 3 and 9 events per well. Each well was prefilled with FMM2. Upon completion of the sort, 96-well plates were incubated for colony formation and expansion. Seven to ten days post sort, the cells were passaged. Subsequent passages in FMM2 were done routinely upon 75-90% confluency. Flow cytometry analysis was performed on Guava EasyCyte 8 HT (Millipore) and analyzed using FCS Express 4 (De Novo Software). Human T cells from three different donors were transfected with the above reprogramming plasmids on day 0. […] The expression of iPSC surface markers (SSEA4, TRA-1-81, and CD30) was analyzed by flow cytometry.

CCCC(CCC)C(=O)O [VPA, valproic acid]
percentage of SSEA4+TRA-1-81+CD30+ iPSC cells in the population: significantly increased
